US20230167127A1, “COMPOUNDS AND THEIR USE IN THE TREATMENT OF BACTERIAL INFECTION” (Hoffmann-La Roche Inc., priority 2020, published 2023)
Structures can show the parent of a compound that is named as a salt.

Test system: Escherichia coli ATCC 25922
Test: 50% growth inhibitory concentration (IC50) determination, Iso-Sensitest broth dilution
Assay type: cell-based
Conditions: Escherichia coli, ATCC25922, 16 h, strain Escherichia coli ATCC 25922; 10-point broth dilution, optical density at 600 nm over 16 h; read-out: Escherichia coli growth inhibition IC50
Procedure, shortened: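 10-point twofold Iso-Sensitest broth dilution (e.g. 50 to 0.097 μM final) with DMSO stocks, incubated at 35±2° C. Growth followed by OD 600 nm every 20 min over 16 h; IC50 derived from growth inhibition during logarithmic phase.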

Q: How did the IC50 turn out when `O=C1COc2ncc(N3CC(C4CCN(C5Cc6cccc(F)c6C5)CC4)OC3=O)nc2N1` (stereo not shown) [Example 350, 6-[5-[1-(4-fluoro-2,3-dihydro-1H-inden-2-yl)piperidin-4-yl]-2-oxo-1,3-oxazolidin-3-yl]-4H-pyrazino[2,3-b][1,4]oxazin-3-one] was run?
A: < 97.7 nM

Q: `Cc1c(F)cnc2c1CC(CNCCC1CN(c3ccc4c(n3)NC(=O)CO4)C(=O)O1)C2` (stereo not shown) [Example 300, 6-[5-[2-[(3-fluoro-4-methyl-6,7-dihydro-5H-cyclopenta[b]pyridin-6-yl)methylamino]ethyl]-2-oxo-1,3-oxazolidin-3-yl]-4H-pyrido[3,2-b][1,4]oxazin-3-one] was tested. Which IC50 did it give?
A: 156 nM

Q: How did the IC50 turn out when `O=C1COc2ncc(-n3cc(CCNCC4Cc5cncc(F)c5C4)oc3=O)nc2N1` (stereo not shown) [Example 372, 6-[5-[2-[(4-fluoro-6,7-dihydro-5H-cyclopenta[e]pyridin-6-yi)methylamino]ethyl]-2-oxo-1,3-oxazol-3-yl]-4H-pyrazino[2,3-b][1,4]oxazin-3-one] was run?
A: < 97.7 nM

Q: `N#Cc1cccc2c1CC(NCC(O)CC1CN(c3ccc4c(n3)NC(=O)CO4)C(=O)O1)C2` (stereo not shown) [Example 238, 2-[[2-Hydroxy-3-[2-oxo-3-(3-oxo-4H-pyrido[3,2-b][1,4]oxazin-6-yl)-1,3-oxazolidin-5-yl]propyl]amino]-2,3-dihydro-1H-indene-4-carbonitrile hydrochloride] was tested. Which IC50 did it give?
A: 170 nM

Q: How did the IC50 turn out when `COc1cc2c(c(C#N)n1)CC(CNCCC1CN(c3cnc4c(n3)NC(=O)CO4)C(=O)O1)C2` (stereo not shown) [Example 65, 3-methoxy-6-[[2-[2-oxo-3-(3-oxo-4H-pyrazino[2,3-b][1,4]oxazin-6-yl)oxazolidin-5-yl]ethylamino]methyl]-6,7-dihydro-5H-cyclopenta[c]pyridine-1-carbonitrile; formic acid] was run?
A: < 97.7 nM

Q: How did the IC50 turn out when `NC1(COc2cc(F)c3c(c2F)CC(CN2CCC4(CC2)CN(c2cnc5c(n2)NC(=O)CO5)C(=O)O4)C3)CC1` (stereo not shown) [Example 410, 6-[8-[[5-[(1-aminocyclopropyl)methoxy]-4,7-difluoro-2,3-dihydro-1H-inden-2-yl]methyl]-2-oxo-1-oxa-3,8-diazaspiro[4.5]decan-3-yl]-4H-pyrazino[2,3-b][1,4]oxazin-3-one; formic acid] was run?
A: < 97.7 nM

Q: Which IC50 does the source give for `Cc1ncc(F)c2c1CC(NC1CC(C3CN(c4cnc5c(n4)NC(=O)CO5)C(=O)O3)C1)C2` (single isomer, unassigned; isomer a) [Example 328, 6-[5-[3-[(4-fluoro-1-methyl-6,7-dihydro-5H-cyclopenta[c]pyridin-6-yl)amino]cyclobutyl]-2-oxo-1,3-oxazolidin-3-yl]-4H-pyrazino[2,3-b][1,4]oxazin-3-one, Isomer A] here?
A: 885 nM

Q: How did the IC50 turn out when `NC1c2cccc(Cl)c2CC1CCNCC1CN(c2ccc3c(n2)NC(=O)CO3)C(=O)O1` (racemic) [Example 194, 6-[2-oxo-5-[[2-[rac-1,2-trans-1-amino-4-chloro-2,3-dihydro-1H-inden-2-yl]ethylamino]methyl]-1,3-oxazolidin-3-yl]-4H-pyrido[3,2-b][1,4]oxazin-3-one] was run?
A: < 97.7 nM

Q: `CC(=O)NCCOc1ccc2c(c1C#N)CC(CNCCC1CN(c3ccc4c(n3)NC(=O)CO4)C(=O)O1)C2` (stereo not shown) [Example 56, N-[2-[[4-cyano-2-[[2-[2-oxo-3-(3-oxo-4H-pyrido[3,2-b][1,4]oxazin-6-yl)-1,3-oxazolidin-5-yl]ethylamino]methyl]-2,3-dihydro-1H-inden-5-yl]oxy]ethyl]acetamide] was tested. Which IC50 did it give?
A: 941 nM

Q: Which IC50 does the source give for `O=C1COc2ccc(N3CC(NCCNC4Cc5cccc(F)c5C4)CC3=O)nc2N1` (stereo not shown) [Example 120, 6-[4-[2-[(4-fluoro-2,3-dihydro-1H-inden-2-yl)amino]ethylamino]-2-oxopyrrolidin-1-yl]-4H-pyrido[3,2-b][1,4]oxazin-3-one; formic acid] here?
A: 440 nM

Q: How did the IC50 turn out when `CNC(=O)COc1cc(C)c2c(c1C)CC(CNCCC1CN(c3ccc4c(n3)NC(=O)CS4)C(=O)O1)C2` (stereo not shown) [Example 114, 2-[[4,7-dimethyl-2-[[2-[2-oxo-3-(3-oxo-4H-pyrido[3,2-b][1,4]thiazin-6-yl)-1,3-oxazolidin-5-yl]ethylamino]methyl]-2,3-dihydro-1H-inden-5-yl]oxy]-N-methylacetamide] was run?
A: 217 nM

Q: How did the IC50 turn out when `Cc1ncc(C#N)c2c1CC(CNCCC1CN(c3ccc4c(n3)NC(=O)CO4)C(=O)O1)C2` (stereo not shown) [Example 47, 1-methyl-6-[[2-[2-oxo-3-(3-oxo-4H-pyrido[3,2-b][1,4]oxazin-6-yl)-1,3-oxazolidin-5-yl]ethylamino]methyl]-6,7-dihydro-5H-cyclopenta[c]pyridine-4-carbonitrile; formic acid] was run?
A: < 97.7 nM

Q: Which IC50 does the source give for `N#Cc1cccc2c1CC(CNCCC1OC(=O)N(c3ccc4c(n3)NC(=O)CO4)C1CN)C2` (racemic) [Example 148, 2-[[2-[rac-4,5-cis-4-(aminomethyl)-2-oxo-3-(3-oxo-4H-pyrido[3,2-b][1,4]oxazin-6-yl)-1,3-oxazolidin-5-yl]ethylamino]methyl]-2,3-dihydro-1H-indene-4-carbonitrile; formic acid] here?
A: 598 nM

Q: For `N#Cc1nccc2c1CC(CNCCC1CN(c3ccc4c(n3)NC(=O)CO4)C(=O)O1)C2N` (racemic) [Example 133, rac-5,6-trans-5-amino-6-[[2-[2-oxo-3-(3-oxo-4H-pyrido[3,2-b][1,4]oxazin-6-yl)-1,3-oxazolidin-5-yl]ethylamino]methyl]-6,7-dihydro-5H-cyclopenta[c]pyridine-1-carbonitrile; formic acid], which IC50 is on record?
A: 1380 nM

Q: Which IC50 does the source give for `Cc1ncc(F)c2c1CC(CN1CCC3(CC1)CN(c1cnc4c(n1)NC(=O)CO4)C(=O)O3)C2` (stereo not shown) [Example 258, 6-[8-[(4-Fluoro-1-methyl-6,7-dihydro-5H-cyclopenta[c]pyridin-6-yl)methyl]-2-oxo-1-oxa-3,8-diazaspiro[4.5]decan-3-yl]-4H-pyrazino[2,3-b][1,4]oxazin-3-one] here?
A: 221 nM

Q: With `NC1(COc2cc(F)c3c(c2)CC(CNCCC2CN(c4cnc5c(n4)NC(=O)CO5)C(=O)O2)C3)CC1` (stereo not shown) [Example 161, 6-[5-[2-[[6-[(1-aminocyclopropyl)methoxy]-4-fluoro-2,3-dihydro-1H-inden-2-yl]methylamino]ethyl]-2-oxo-1,3-oxazolidin-3-yl]-4H-pyrazino[2,3-b][1,4]oxazin-3-one] as the compound, how does the IC50 read?
A: < 97.7 nM

Q: How did the IC50 turn out when `CNC(=O)COc1cc2c(c(Cl)n1)CC(CNCCC1CN(c3ccc4c(n3)NC(=O)CO4)C(=O)O1)C2` (stereo not shown) [Example 66, 2-[[1-chloro-6-[[2-[2-oxo-3-(3-oxo-4H-pyrido[3,2-b][1,4]oxazin-6-yl)oxazolidin-5-yl]ethylamino]methyl]-6,7-dihydro-5H-cyclopenta[c]pyridin-3-yl]oxy]-N-methyl-acetamide] was run?
A: 234 nM

Q: With `CCn1cc(C(=O)O)c(=O)c2ccc3c(c21)CC(CNCCC1CN(c2ccc4c(n2)NC(=O)CO4)C(=O)O1)C3` (stereo not shown) [Example 275, 1-Ethyl-4-oxo-8-[[2-[2-oxo-3-(3-oxo-4H-pyrido[3,2-b][1,4]oxazin-6-yl)-1,3-oxazolidin-5-yl]ethylamino]methyl]-8,9-dihydro-7H-cyclopenta[h]quinoline-3-carboxylic acid] as the compound, how does the IC50 read?
A: 592 nM

Q: Which IC50 does the source give for `Cc1ncc(F)c2c1CC(CNCCC1CN(c3cnc4c(n3)NC(=O)CO4)C(=O)O1)C2` (stereo not shown) [Example 51, 6-[5-[2-[(4-fluoro-1-methyl-6,7-dihydro-5H-cyclopenta[c]pyridin-6-yl)methylamino]ethyl]-2-oxo-1,3-oxazolidin-3-yl]-4H-pyrazino[2,3-b][1,4]oxazin-3-one] here?
A: < 97.7 nM

Q: For `N#Cc1cccc2c1CC(CN[C@H]1C[C@H](C3CN(c4ccc5c(n4)NC(=O)CO5)C(=O)O3)C1)C2` (stereo partly drawn) [Example 97, 2-[[[trans-3-[2-oxo-3-(3-oxo-4H-pyrido[3,2-b][1,4]oxazin-6-yl)-1,3-oxazolidin-5-yl]cyclobutyl]amino]methyl]-2,3-dihydro-1H-indene-4-carbonitrile], which IC50 is on record?
A: 185 nM

Q: For `NC1c2cccc(Cl)c2CC1CN1CCC2(CC1)CN(c1ccc3c(n1)NC(=O)CO3)C(=O)O2` (racemic) [Example 212, 6-[2-oxo-8-[[rac-1,2-trans-1-amino-4-chloro-2,3-dihydro-1H-inden-2-yl]methyl]-1-oxa-3,8-diazaspiro[4.5]decan-3-yl]-4H-pyrido[3,2-b][1,4]oxazin-3-one], which IC50 is on record?
A: < 97.7 nM

Q: `NC1c2cccc(Cl)c2CC1CNCCc1nn(-c2ccc3c(c2)NC(=O)CO3)c(=O)o1` (racemic) [Example 147, 6-[2-oxo-5-[2-[[rac-1,2-trans-1-amino-4-chloro-2,3-dihydro-1H-inden-2-yl]methylamino]ethyl]-1,3,4-oxadiazol-3-yl]-4H-1,4-benzoxazin-3-one; formic acid] was tested. Which IC50 did it give?
A: < 97.7 nM

Q: With `NC1c2cccc(Cl)c2CC1CNCCc1cn(-c2cnc3c(n2)NC(=O)CO3)c(=O)o1` (racemic) [Example 359, 6-[5-[2-[(rac-1,2-trans-1-amino-4-chloro-2,3-dihydro-1H-inden-2-yl)methylamino]ethyl]-2-oxo-1,3-oxazol-3-yl]-4H-pyrazino[2,3-b][1,4]oxazin-3-one; formic acid] as the compound, how does the IC50 read?
A: < 97.7 nM

Same assay, conditions: strain Escherichia coli ATCC 25922; 10-point broth dilution, optical density at 600 nm over 16 h; read-out: Escherichia coli growth inhibition IC50

Q: For `N#Cc1cccc2c1CC(CN1CCC3(CN(c4ccc5c(n4)NC(=O)CO5)C(=O)O3)C(CN)C1)C2` (racemic) [Example 252, 2-[[rac-5,6-trans-6-(Aminomethyl)-2-oxo-3-(3-oxo-4H-pyrido[3,2-b][1,4]oxazin-6-yl)-1-oxa-3,8-diazaspiro[4.5]decan-8-yl]methyl]-2,3-dihydro-1H-indene-4-carbonitrile; formic acid], which IC50 is on record?
A: 156 nM

Q: `N#Cc1cccc2c1CC(NC1CCC3(CC1)CN(c1ccc4c(n1)NC(=O)CO4)C(=O)O3)C2` (single isomer, unassigned; isomer a) [Example 39, 2-[[2-oxo-3-(3-oxo-4H-pyrido[3,2-b][1,4]oxazin-6-yl)-1-oxa-3-azaspiro[4.5]decan-8-yl]amino]-2,3-dihydro-1H-indene-4-carbonitrile, Isomer A; formic acid] was tested. Which IC50 did it give?
A: 737 nM
